# From patent publication US8829213B2, “Liver X receptor agonists” (The University of Chicago, priority 2009, dated 2014)
# What was measured:
# LDLR−/− mice [1] = assay: Atherosclerotic lesion quantification in LDLR−/− mice fed an atherogenic diet; type: in vivo; conditions: 8 weeks
# Description: (§1) Eight-week old male LDLR−/− mice on a C57BL/6 background (obtained from Jackson Laboratory) were fed an atherogenic diet (TD94059, Harlan TEKLAD, Madison, Wis.) for 8 weeks. During the same period, the mice received Compound 1 daily by gavage at a dose of 3 or 5 mg/kg in a microemulsion prepared by the method described in Gao et al., Int J Pharm 1998, 161:75-86). The control group (vehicle) received a microemulsion without Compound 1. After 8 weeks, the mice were fasted for 4 hours and anesthetized with ketamine (100 mg/kg) and xylazine (10 mg/kg). A blood sample was collected from the retro-orbital plexus of each mouse. 200 μl of plasma was fractionated on tandem Superose 6 fast protein liquid chromatography columns (Reardon et al., 2001). Cholesterol and triglyceride in the even-numbered fast protein liquid chromatography fractions and in plasma samples were measured using commercial kits (Stanbio Laboratory, Boerne, Tex.).
# The mice were then perfused transcardially with PBS and then paraformaldehyde. The hearts and upper vasculatures were removed and prepared for histology as described in Reardon et al., Arterioscler Thromb Vasc Biol 2001, 21:1011-1016.
# Lesions in the innominate artery were quantified using 4 digitally captured oil red O-stained 10 μm sections, separated by 100 μm and located 150-450 μm distal to the branch point of the innominate artery from the aortic arch. Lesions in the ascending thoracic aorta were assessed from three sections separated by 100 μm and located 100-300 μm below the apex of the lesser curvature of the aortic arch. Aortic sinus lesions were evaluated from 3 sections, separated by 100 μm and beginning at the site of appearance of the coronary artery. OpenLab software version 3.1.5 was used in the quantification.
# human LXRα or LXRβ = assay: Luciferase-based reporter gene assay for LXR agonism; type: cell-based; conditions: HEK293 cells co-transfected with human LXRα or LXRβ, 48 hours
# Description: The ability of Compound 1 to act as an LXR agonist was tested using a luciferase-based reporter gene assay according to the method described in Graham et al., Virology, 1973, 52:456. The assay is described below:
# Wells of a 48-well plate were seeded with 50,000 human embryonic kidney (HEK293) cells in 0.25 mL of Dulbecco's modified Eagle's media containing 10% charcoal-stripped fetal bovine serum (DMEM+10% CS-FBS). HEK293 cells were co-transfected with various plasmid DNAs using a calcium phosphate co-precipitation method (Graham et al., Virology, 1973, 52:456). To each well was added 0.25 mL of a transfection mix (1.36 mL transfection components and 11.5 mL DMEM+10% CS-FBS) containing 60 ng of a firefly luciferase-based reporter plasmid, 60 ng of pSG5 containing human LXRα or LXRβ cDNA, 0.6 ng of the sea pansy luciferase normalization plasmid phRL-TK (Promega), and 220 ng of pBS/SK+II. […] Firefly and sea pansy luciferase activities in the lysate were measured using a dual luciferase assay (Promega) and a Monolight luminometer. […] Fold activation of the firefly luciferase reporter plasmid was calculated from normalized relative light units in the presence and absence of the test compound.
# LDLR−/− mice [2] = assay: Reduction of plasma cholesterol and triglyceride levels in LDLR−/− mice fed an atherogenic diet; type: in vivo; conditions: 8 weeks
# Description: as §1
# [3] = daily gavage 3 or 5 mg/kg, vs vehicle
smiles,measurement,setting,value
CC(/C=C/C(O)(C(F)(F)F)C(F)(F)F)C1CCC2C3C[C@H](O)[C@@H]4C[C@H](O)CCC4(C)C3CCC12C (some centres unmarked) [Compound 1],"mean atherosclerotic lesion area, aortic root",LDLR−/− mice [1]; 3 mg/kg/day,significantly reduced
same,"atherosclerotic plaque size, ascending aorta arch",LDLR−/− mice [1]; 5 mg/kg/day,significantly reduced
same,"atherosclerotic plaque size, innominate artery",LDLR−/− mice [1]; 5 mg/kg/day,significantly reduced
same,"mean atherosclerotic lesion area, aortic root",LDLR−/− mice [1]; 5 mg/kg/day,significantly reduced
same,LXR agonist activity (fold activation of firefly luciferase reporter),human LXRα or LXRβ,very effective LXR agonist
same,HDL cholesterol level,LDLR−/− mice [2]; 3 mg/kg daily gavage,not
same,VLDL cholesterol level,LDLR−/− mice [2]; 3 mg/kg daily gavage,reduced
same,triglyceride levels,LDLR−/− mice [2]; 3 mg/kg daily gavage,reduced
same,HDL cholesterol level,LDLR−/− mice [2]; 5 mg/kg daily gavage,not
same,LDL cholesterol level,LDLR−/− mice [2]; 5 mg/kg daily gavage,reduced
same,VLDL cholesterol level,LDLR−/− mice [2]; 5 mg/kg daily gavage,reduced
same,triglyceride levels,LDLR−/− mice [2]; 5 mg/kg daily gavage,reduced
same,cholesterol level in the blood,LDLR−/− mice [2]; [3],marked decrease
same,triglyceride level in the blood,LDLR−/− mice [2]; [3],marked decrease
